Assay results from PMC5656322, “BAK1 is involved in AtRALF1-induced inhibition of root cell expansion” (PLoS Genetics, 2017).
Where two headings read alike, the source gives them in different places. Values belong to the molecule of their own block, whether it stands above or below them. Where no end group is shown, it is not given here. acridinium ester = acridinium ester label conjugated to the N-terminus of the peptide

Columns and labels:
[1] = test system: intact Arabidopsis seedlings; experiment: Binding assay with acridinium-labeled AtRALF1, intact seedlings; design: species or system Arabidopsis thaliana; settings: for reduction of total acriAtRALF1 binding vs wild-type: 7 nM, 4 °C
Method: (§1) (A) Whole seedlings (5 days old) were treated for 15 min with acriAtRALF1 (acriR1), acriR1 and an excess of unlabeled AtRALF34 (R34), RALF1(9–49) [(R-9-49)], or AtRALF1 (R1), as indicated. The values are the mean ± SD of two measurements (5 seedlings each). (B) Microsomal fractions from wild-type and bak1 mutants were incubated for 15 min with acriAtRALF1 (acriR1), with acriR1 and an excess of unlabeled RALF1(9–49) [(R-9-49)], or with AtRALF1 (R1), as indicated. The values are the mean ± SD of two measurements. The proportions of labeled: unlabeled proteins are shown in parentheses. Single and triple asterisks indicate P < 0.1 and P < 0.01 (Student’s t test).
(§2) Arabidopsis seedlings were grown for 5 days on vertical plates. Roots were homogenized in extraction buffer [300 mM sucrose, 100 mM Tris-HCl pH 7.5, 25 mM EDTA, 25 mM NaF, 1 mM Na2MoO4, 1 mM PMSF and protease inhibitor cocktail (Roche), adjusted to pH 6.2], and the homogenate was spun at 2,000 x g for 10 min at 4 °C. The supernatant was recovered and centrifuged at 100,000 x g for 50 min at 4 °C to precipitate the microsomal pellet. The pellet was resuspended in the extraction buffer plus 0.5% Triton-X. Seedlings or microsomal fractions were placed in 200 μl of medium and incubated with 7 nM acridinium-labeled peptide (acriAtRALF1 or acriAtRALF34) and different concentrations of AtRALF1, AtRALF34 or RALF1(9–49) for 15–20 min at 4 °C on a shaker. After incubation, the seedlings or microsomal fractions were washed three times with the same medium. Unless indicated otherwise, five entire seedlings and approximately 10 ng of microsomal fractions were used per treatment. The resulting luminescence emissions from the acridinium were measured using a microplate reader (Biotec ELx 800) at 2 s after injecting 50 μl of a solution containing 20 mM H2O2 in 0.1 M NaOH. These experiments were repeated at least three times using independent biological replicates. Duplicates were used for each concentration or treatment. The data shown are from one representative experiment.
Supplementary file pgen.1007053.s017.pdf: S17 Fig Analyses of acridinium-labeled AtRALF1 (acriAtRALF1) and binding of acriAtRALF1 in bak1-4 and fer4 mutants. (A) The Ca^2+ mobilization assay comparing the acriAtRALF1 activity with the AtRALF1 peptide. A total of 20 time-points per treatment were measured over 160 sec and summed. The results are the means ± SD of two measurements. (B) acriAtRALF1 binding in whole seedlings and only in roots of Arabidopsis. The roots were excised just before measurements. Ctr, seedlings treated with unlabeled AtRALF1. (C) Whole seedlings (5 days old) were treated for 20 min with acriAtRALF1 (acriR1), acriR1 and an excess of unlabeled AtRALF1 (R1), as indicated. The values are the mean ± SD of three measurements (5 seedlings each). The proportions of labeled: unlabeled proteins are shown in parentheses. Triple asterisks indicates P < 0.001 (Student’s t test). (PDF) Click here for additional data file.
Supplementary file pgen.1007053.s018.pdf: S18 Fig Binding of acridinium-labeled AtRALF1 and AtRALF34 to intact Arabidopsis seedlings. (A) bak7 seedlings (5 days old) were treated for 15 min with acriAtRALF1 (acriR1), acriR1 and an excess of unlabeled AtRALF1 (R1), as indicated. (B) bak1 seedlings (5 days old) were treated for 15 min with acriAtRALF34 (acriR34), acriR34 and an excess of unlabeled AtRALF34 (R34) or AtRALF1 (R1), as indicated. The proportions of labeled: unlabeled proteins are shown in parentheses. The values are the mean ± SD of two measurements (5 seedlings each). (PDF) Click here for additional data file.

[2] = test system: microsomal fractions from the roots of Arabidopsis; experiment: Binding assay with acridinium-labeled AtRALF1, microsomal fractions; design: species or system Arabidopsis thaliana
Method: as §1, §2

[3] = test system: cytosolic Ca^2+ in Arabidopsis seedlings; experiment: Ca^2+ mobilization assay (apoaequorin luminescence); type: in vivo, Arabidopsis thaliana; settings: acriAtRALF1 vs unlabeled AtRALF1, apoaequorin seedlings (S17A Fig)
Method: The cytoplasmic Ca^2+ assay was performed in Arabidopsis seedlings as described previously. Changes in Ca^2+ levels were measured using an Arabidopsis line homozygous for the single insertion of a transgene encoding a cytoplasmically expressed apoaequorin protein driven by the constitutive promoter 35S [53], here denoted Wt-aeq. Wt-aeq plants were crossed with bak1-3 mutants, and T3 generation plants overexpressing apoaequorin and containing a T-DNA insertion in the BAK1 gene, named bak1-3-aeq, were selected and evaluated using semi-quantitative RT-PCR with specific primers (S1 Table). Arabidopsis seedlings were grown in plates for 4 days. A single seedling was transferred into each well of a 96-well white microplate (Thermo Labsystems) containing 200 μl of medium supplemented with […] coelenterazine cp (Biotium) and incubated in the dark at 24 °C for 16 h. Each well containing a single seedling received recombinant AtRALF1 or acridinium-labeled AtRALF1 at a final concentration of 5, 10 or 100 nM as indicated. The resulting luminescence emission was monitored using a microplate reader (Biotec ELx 800) and 20 time-points for approximately 160 s. The experiments were repeated at least three times using independent biological replicates. The data shown are from one representative experiment.

cell suspensions = settings: ref [5]; cited from earlier work
[4] = test system: Arabidopsis seedlings, primary root; experiment: Root growth inhibition assay, liquid medium, 24-well plates; type: in vivo, Arabidopsis thaliana; settings: 10 μM, 2 days; bak1-1, bak1-3 and bak1-4 mutants
Method: (§3) (A) and (B) Arabidopsis seedlings (2 days old) were treated with 10 μM AtRALF1 or water (H20) for 2 days. The values are the mean ± SD of at least 25 seedlings. Triple asterisks indicate P < 0.01 (Student’s t test); ns, not significant. (C) Four-day-old seedlings were transferred to media containing different concentrations of AtRALF1, and the primary root length was measured after 8 days of treatment. The data represent the mean value ± SD of 30 seedlings. […] Representative Arabidopsis seedlings after 8 days of treatment with AtRALF1 are shown below. Seedlings were arranged on plates after the treatment for imaging. Scale bars, 1 cm. (D) Two-day-old seedlings were treated with 10 μM AtRALF1 or water for 2 days, and root cell length was measured after 2 days of treatment. Cells from the root endodermis in the differentiation zone were measured. The values are the mean ± SD of approximately 150 cells. Triple asterisks indicate P < 0.01 (Student’s t test); ns, not significant.
(§4) Aliquots of 1 ml of medium containing seeds were distributed into 24-well plates. The peptides (10 μM) were added after 2 days, and the root length was measured 2 days after treatment. To maximize root growth, the seeds were germinated in vertical plates. […] The root length was measured 8 days after treatment unless stated otherwise. Control plants were grown under identical conditions in a peptide-free medium. Quantitative data were obtained as previously described. The experiments were repeated at least 3 times using independent biological replicates with similar results. The data from one representative experiment are shown. For cell length measurements, AtRALF1 peptide (10 μM) was added after 2 days of germination, and the cell length was measured after 2 days of treatment. The cell wall was stained with a 1 mg ml^-1 propidium iodide solution (Sigma) in the dark for 15 min and washed twice with water. Cells of the endodermis of the root differentiation zone were imaged and measured using confocal microscopy (Olympus FV1000). Approximately 30 plants from each genetic background and at least 5 cells per root were measured. The wavelengths for excitation and emission were 555 and 655 nm, respectively. Image processing was completed using the Olympus FluoView software.
Arabidopsis seedlings (2-days-old) were treated with 10 μM AtRALF1 or water (H20) for 2 days. The values are the mean ± SD of at least 25 seedlings. Triple asterisks indicate P < 0.01 (Student’s t test); ns, not significant. (PDF) Click here for additional data file.
Supplementary file pgen.1007053.s002.pdf: S2 Fig Loss-of-function bak1 mutants are sensitive to the inhibitory activity of AtRALF23/34 on root growth. Arabidopsis seedlings (2-day-old) were treated with 10 μM RALF1(9–49), RALF1(I6A), AtRALF1, AtRALF23 and AtRALF34 or water (H20) for 2 days. The values are the mean ± SD of at least 20 seedlings. […] (PDF) Click here for additional data file.

[5] = test system: Arabidopsis seedlings, primary root; settings: wild-type Arabidopsis; ref [5]; cited from earlier work
Method: To better understand the role of AtRALF1 and BRs in regulating cell expansion, we exposed different mutants and transgenic Arabidopsis plants with altered BR signaling pathways to the peptide hormone AtRALF1 at concentrations that inhibit root growth. Loss-of-function mutants (bri1-301, bsk3-2 and bak1-4), gain-of-function mutants (sud1, bes1-D and bzr1-D) and two overexpressor lines (BRI OX and DWF4 OX) were used in the root growth assays in the presence or absence of 10 μM AtRALF1 (Fig 1A).

[6] = test system: Arabidopsis seedlings, primary root; experiment: Root growth inhibition assay, vertical plates; type: in vivo, Arabidopsis thaliana; settings: bak1 mutants, 0.1 μM, 8 days
Method: as §3
as §4, with “The experiments were repeated at least 3 times using independent biological replicates with similar results.” left out
Supplementary file pgen.1007053.s004.pdf: S4 Fig Analyses of root growth of Arabidopsis seedlings treated with AtRALF1 peptide for 8 days and evaluated daily. Four-day-old seedlings were transferred to media containing different concentrations of AtRALF1, and the primary root length was measured daily during the 8 days of treatment. Genotypes Wt, bak1-1, bak1-3 and bak1-4 are indicated on top of each series of graphics. The seedlings were treated with 0, 0.5, 1, 5 and 10 μM AtRALF1. The data represent the mean values ± SD of 30 seedlings. Double and triple asterisks indicate P < 0.05 and P <0.01, respectively (Student’s t test); ns, not significant. (PDF) Click here for additional data file.
Four-day-old seedlings were transferred to medium containing 10 μM AtRALF1, and the primary root length was measured after 8 days of treatment. The data represent the mean value ± SD of 20 seedlings. Triple asterisks indicate P < 0.01 (Student’s t test); ns, not significant. Representative Arabidopsis seedlings after 8 days of treatment with AtRALF1 are shown. The seedlings were arranged on plates after the treatment for imaging. Scale bars, 1 cm. (PDF) Click here for additional data file.
Four-day-old seedlings were transferred to medium containing 0.1 μM BAP, and the primary root length was measured after 8 days of treatment. The data represent the mean value ± SD of 10 seedlings.

- nature of acriAtRALF1 binding ([2]; microsomal fractions): specific and saturable
- reduction of total acriAtRALF1 binding vs wild-type ([2]; microsomal fractions of bak1 mutants, 7 nM, 4 °C): approximately 15%
Molecule: acriAtRALF1: acridinium-labeled AtRALF1; acridinium ester conjugated to the N-terminal of the peptide ({acridinium ester}-ATTKYISYQSLKRNSVPCSRRGASYYNCQNGAQANPYSRGCSKIARCRS; ends and bridges not checked)
- reduction of total acriAtRALF1 binding vs wild-type ([1]; bak1-1 seedlings, 15 min): 30%
- reduction of total acriAtRALF1 binding vs wild-type ([1]; bak1-3 seedlings, 15 min): 29%
- reduction of total acriAtRALF1 binding vs wild-type ([1]; bak1-4 seedlings, 15 min): 31%
- reduction of total acriAtRALF1 binding, wild-type vs bak7 ([1]; bak7 mutants, 15 min): no differences in the reduction of total binding between wild-type and bak7 mutants were observed
- reduction of total acriAtRALF1 binding ([1]; fer4 mutants, 20 min (S17C Fig)): approximately 48%
- source of acriAtRALF1 chemiluminescent signal ([1]; whole seedlings vs only roots (S17B Fig)): the roots were the only source of the chemiluminescent signal
- increase in cytoplasmic Ca^2+ [3]: induced an increase in cytoplasmic Ca^2+

Molecule: AtRALF23: Arabidopsis RALF isoform (ATRRYISYGALRRNTIPCSRRGASYYNCRRGAQANPYSRGCSAITRCRRS; ends and bridges not checked; cysteine pairing not given here; UniProt Q9LUS7 89-138, looked up) [reference compound]
- alkalinization of the extracellular medium (cell suspensions): alkalinizes the extracellular medium of cell suspensions
- primary root growth inhibition [4]: inhibited the primary root growth
- primary root growth inhibition [5]: inhibits the primary root growth of wild-type Arabidopsis plants

Molecule: c1ccc(CNc2ncnc3nc[nH]c23)cc1 [6-benzylaminopurine (BAP), 6-benzylaminopurine, reference compound]
- root growth inhibition [6]: capable of inhibiting the root growth of bak1 mutants
